Assay results reported in EPA's CvTdb concentration-time database.

Legend:
Rat [1] = assay: concentration in plasma after dosing; conditions: dosed: 2,4-Dichlorophenoxyacetic acid, 7.0 mg/kg, oral, Male, Sprague-Dawley
Rat [2] = assay: concentration in plasma after dosing; conditions: 0.25 h; dosed: 2-Hydroxy-4-methoxybenzophenone; 500 mg/kg; oral; Female; F344
Mouse [3] = assay: concentration in plasma after dosing; conditions: dosed: 2-Hydroxy-4-methoxybenzophenone, 100 mg/kg, oral, Female, B6C3F1
Rat [4] = assay: concentration in plasma after dosing; conditions: dosed: 2-Hydroxy-4-methoxybenzophenone, 250 mg/kg, oral, Male, F344
Rat [5] = assay: concentration in plasma after dosing; conditions: dosed: 2-Hydroxy-4-methoxybenzophenone, 500 mg/kg, oral, Male, F344
Mouse [6] = assay: concentration in plasma after dosing; conditions: 0.25 h; dosed: 2-Hydroxy-4-methoxybenzophenone; 500 mg/kg; oral; Male; B6C3F1
Rat [7] = assay: concentration in plasma after dosing; conditions: dosed: 2-Hydroxy-4-methoxybenzophenone, 100 mg/kg, oral, Male, F344
Mouse [8] = assay: concentration in plasma after dosing; conditions: 10 min; dosed: 2-Hydroxy-4-methoxybenzophenone; 500 mg/kg; oral; Male; B6C3F1
Rat [9] = assay: concentration in plasma after dosing; conditions: dosed: Methyleugenol, 37 mg/kg, iv, Male, F344
Rat [10] = assay: concentration in plasma after dosing; conditions: dosed: Methyleugenol, 37 mg/kg, oral, Female, F344/N
Rat [11] = assay: concentration in plasma after dosing; conditions: dosed: Methyleugenol, 37 mg/kg, oral, Female, F344/N; remark: listed apart in the source
Rat [12] = assay: concentration in plasma after dosing; conditions: 2 min; dosed: Methyleugenol; 37 mg/kg; iv; Female; F344
Rat [13] = assay: concentration in brain after dosing; conditions: 12 h; dosed: Perfluorohexane-1-sulphonic acid – potassium salt; 16 mg/kg; oral; Female; F344
Rat [14] = assay: concentration in brain after dosing; conditions: 12 h; dosed: Perfluorohexane-1-sulphonic acid – potassium salt; 16 mg/kg; oral; Female; Harlan Sprague Dawley
Rat [15] = assay: concentration in liver after dosing; conditions: 96 h; dosed: Perfluorohexane-1-sulphonic acid – potassium salt; 16 mg/kg; oral; Female; Harlan Sprague Dawley
Rat [16] = assay: concentration in kidney after dosing; conditions: 192 h; dosed: Perfluorohexane-1-sulphonic acid – potassium salt; 16 mg/kg; oral; Female; F344
Rat [17] = assay: concentration in kidney after dosing; conditions: 6 h; dosed: Perfluorohexane-1-sulphonic acid – potassium salt; 16 mg/kg; oral; Female; Harlan Sprague Dawley
Rat [18] = assay: concentration in kidney after dosing; conditions: 1200 h; dosed: Perfluorohexane-1-sulphonic acid – potassium salt; 16 mg/kg; oral; Male; Harlan Sprague Dawley
Rat [19] = assay: concentration in kidney after dosing; conditions: 528 h; dosed: Perfluorohexane-1-sulphonic acid – potassium salt; 16 mg/kg; oral; Female; F344
Rat [20] = assay: concentration in plasma after dosing; conditions: 1.5 h; dosed: Primidone; 30 mg/kg; oral; Male; F344
Rat [21] = assay: concentration in plasma after dosing; conditions: 50 min; dosed: Pyridine; 10 mg/kg; iv; Male; F344
Rat [22] = assay: concentration in plasma after dosing; conditions: dosed: Pyridine, 5 mg/kg, oral, Male, F344
Rat [23] = assay: concentration in plasma after dosing; conditions: dosed: Pyridine, 5 mg/kg, iv, Male, F344
Rat [24] = assay: concentration in brain after dosing; conditions: 2 min; dosed: alpha-Thujone; 50 mg/kg; oral; Female; Harlan Sprague Dawley
Rat [25] = assay: concentration in brain after dosing; conditions: 6 h; dosed: alpha-Thujone; 25 mg/kg; oral; Male; Harlan Sprague Dawley
Rat [26] = assay: concentration in brain after dosing; conditions: 5 min; dosed: alpha-Thujone; 25 mg/kg; oral; Male; Harlan Sprague Dawley
Rat [27] = assay: concentration in brain after dosing; conditions: 10 min; dosed: alpha-Thujone; 25 mg/kg; oral; Male; Harlan Sprague Dawley
Rat [28] = assay: concentration in plasma after dosing; conditions: 2 min; dosed: alpha-Thujone; 25 mg/kg; oral; Female; Harlan Sprague Dawley
Rat [29] = assay: concentration in plasma after dosing; conditions: 6 h; dosed: alpha-Thujone; 50 mg/kg; oral; Female; Harlan Sprague Dawley
Rat [30] = assay: concentration in plasma after dosing; conditions: 3 h; dosed: alpha-Thujone; 25 mg/kg; oral; Male; Harlan Sprague Dawley
Rat [31] = assay: concentration in plasma after dosing; conditions: 12 h; dosed: alpha-Thujone; 25 mg/kg; oral; Male; Harlan Sprague Dawley
Rat [32] = assay: concentration in plasma after dosing; conditions: 5 min; dosed: alpha-Thujone; 50 mg/kg; oral; Female; Harlan Sprague Dawley
Rat [33] = assay: concentration in plasma after dosing; conditions: 3 h; dosed: alpha-Thujone; 50 mg/kg; oral; Male; Harlan Sprague Dawley
Rat [34] = assay: concentration in plasma after dosing; conditions: 3 h; dosed: alpha-Thujone; 50 mg/kg; oral; Female; Harlan Sprague Dawley

O=C(O)COc1ccc(Cl)cc1Cl [2,4-Dichlorophenoxyacetic acid]
Rat [1]
Conditions	concentration in plasma [µg/mL]
0.25 h	8.07
0.5 h	14.5
2 h	4.09
2.5 min	7.17
3 h	3.18
4 h	3.72
5 h	4.48
6 h	1.89
10 min	14.7

O=C(c1ccccc1)c1ccc(O)cc1O [2,4-Dihydroxybenzophenone]
Conditions	concentration in plasma [µg/mL]
Mouse [6]	2.74
Mouse [8]	0.856
Rat [2]	1.54

Conditions	concentration in plasma [µg/mL]
Mouse [3], 0.25 h	0.276
Mouse [3], 2 h	0.0923
Mouse [3], 2.5 min	0.0637
Mouse [3], 10 min	0.13
Rat [4], 0.25 h	0.083
Rat [4], 4 h	0.121
Rat [5], 0.5 h	0.236
Rat [5], 12 h	0.151
Rat [7], 0.5 h	0.142
Rat [7], 5 h	0.0656

C=CCc1ccc(OC)c(OC)c1 [Methyleugenol]
Conditions	concentration in plasma [µg/mL]
Rat [9], 0.25 h	9.38
Rat [9], 1.5 h	0.67
Rat [10], 5 h	0.00558
Rat [10], 20 min	0.146
Rat [11], 6 h	0.00885
Rat [11], 10 min	0.254

Conditions	concentration in plasma [µg/mL]
Rat [12]	47.5

O=S(=O)([O-])C(F)(F)C(F)(F)C(F)(F)C(F)(F)C(F)(F)C(F)(F)F.[K+] [Perfluorohexane-1-sulphonic acid – potassium salt]
Conditions	concentration in brain [ng/g]	concentration in kidney [ng/g]	concentration in liver [ng/g]
Rat [13]	1520	–	–
Rat [14]	1190	–	–
Rat [15]	–	–	10200
Rat [16]	–	15300	–
Rat [17]	–	36500	–
Rat [18]	–	4040	–
Rat [19]	–	10000	–

CCC1(c2ccccc2)C(=O)NCNC1=O [Primidone]
Conditions	concentration in plasma [µg/mL]
Rat [20]	14

c1ccncc1 [Pyridine]
Conditions	concentration in plasma [µg/mL]
Rat [21]	4.15

concentration in plasma [µg/mL]
Conditions	0.05 h	1 h	4 h	8 h
Rat [22]	–	2.53	–	1.39
Rat [23]	4.92	–	1.44	–

CC(C)[C@]12CC(=O)[C@H](C)[C@H]1C2 [alpha-Thujone]
Conditions	concentration in brain [ng/g]	concentration in plasma [ng/mL]
Rat [24]	13.2	–
Rat [25]	117	–
Rat [26]	1220	–
Rat [27]	731	–
Rat [28]	–	10.6
Rat [29]	–	162
Rat [30]	–	113
Rat [31]	–	11.3
Rat [32]	–	112
Rat [33]	–	357
Rat [34]	–	303
